Assay results as given in patent US20130072505A1, “6,9-Disubstituted Purine Derivatives and Their Use for Treating Skin” (priority 2006, published 2013).
Marks after values point to notes of the source that are not given here.

Test system: photodamaged facial skin
Assay: clinical study of topical treatment of photodamaged facial skin, 12 weeks
Format: in vivo, human
Conditions: for investigator's assessment of overall improvement in skin condition (relative to baseline): 6-point scale (1=excellent improvement to 5=no improvement; 6=worse); for investigator's assessment of overall skin condition: 10 point scale (0=None; 1-3=Mild; 4-6=Moderate; 7-9=Severe); for Mean Improvement from Baseline: TEWL / Mean Improvement from Baseline: Coarse Wrinkles / Mean Improvement from Baseline: Fine Wrinkles / Mean Improvement from Baseline: Mottled Hyperpigmentation / Mean Improvement from Baseline: Overall Skin Condition / Mean Improvement from Baseline: Roughness / Subjects Reporting Improvement from Baseline: Blotchiness / Subjects Reporting Improvement from Baseline: Color / Subjects Reporting Improvement from Baseline: Fine Wrinkles / Subjects Reporting Improvement from Baseline: Texture: 0.10% topical; for Mean Improvement from Baseline: Coarse Wrinkles / Mean Improvement from Baseline: Fine Wrinkles / Mean Improvement from Baseline: Mottled Hyperpigmentation / Mean Improvement from Baseline: Overall Skin Condition / Mean Improvement from Baseline: Roughness: expert evaluation; for Skin Moisture / TEWL: 0.10% in MillCreek Lotion twice daily
Excerpt: A clinical study has been conducted to determine the cosmetic efficacy and subjects' tolerance of topical 6-furfurylamino-9-(2-tetrahydropyranyl)purine (0.10%) applied twice daily for 12 weeks to improve the clinical signs and symptoms of photodamaged facial skin. Forty female volunteer subjects age 40 to 65 with mild to moderate signs of photo damaged facial skin were enroled in the study. Thirty four subjects competed the study; the mean age of subjects competing the study was about 54 years. Subjects were instructed to apply the test product to the entire facial skin twice daily (i.e., early morning and approximately 1 hour before bedtime) for 12 consecutive weeks. Subjects were also instructed that, other than sunscreens or mild cleansers and use of color cosmetics, no other topical skin care products or medications were to be used on the face during the study. The test product comprised 0.1 percent 6-furfurylamino-9-(2-tetrahydropyranyl)purine in MillCreek Lotion as vehicle.
Subjects were assessed at weeks 2, 4, 8, and 12. The treated facial skin was evaluated for clinical signs of skin aging (e.g., coarse and fine wrinkles, roughness, mottled hyperpigmentation) at study entry (baseline) as well as 2, 4, 8 and 12 weeks. The subjects' self-assessment of improvement over baseline (wrinkles, texture, blotchiness, color, and overall improvement) were also obtained. In addition, transepidermal water loss (TEWL) and skin moisture measurements were taken on the cheeks of all subjects.
TEWL refers to the amount of water vapor loss through the stratum corneum. […] TEWL measurements were taken using a TEWL meter (Courage & Khazaka, Köln, Germany) having composed of a probe (containing humidity and temperature sensors) connected to a central processing unit. For each subject, the probe was placed in the center of both cheeks and measurements taken in duplicate.
An indirect measurement of the skin's moisture content was made by measuring changes in the skin's electrical properties. Impedance based capacitance measurements were taken on the skin using a NOVA DPM 9003® (NOVA Technologies, Gloucester, Mass., USA). The instrument performs measurements at varying preselected frequencies (up to 1 MHz) of the applied alternating current. A value directly related to capacitance is determined in arbitrary units; a higher value indicates a greater capacitance which indicates an increased level of moisture at the test site. Measurements in triplicate were taken in the center of both cheeks for each test subject.
At the baseline (Day 0) visit, an investigator evaluated each subject's face for the presence of fine wrinkles, coarse wrinkles, roughness, mottled hyperpigmentation, and other parameters using a five-point scale (0=None; 1=Minimal; 2=Mild; 3=Moderate; and 4=Severe). The overall severity of skin photodamage (wrinkles, roughness and mottled hyperpigmentation) was evaluated using a 10 point scale (0=None; 1-3=Mild; 4-6=Moderate; and 7-9=Severe); subjects with baseline severity scores greater than 6 were excluded from the study.
On each subsequent visit, the investigator evaluated overall improvement compared to baseline using a 6-point scale (1=excellent improvement; 2=marked improvement; 3=moderate improvement; 4=slight improvement; 5=no improvement; and 6=worse).
At each subsequent visit, the subjects were asked to complete a self-assessment questionnaire to assess the improvement from baseline for skin texture, skin color, blotchiness (i.e., brown spots), fine wrinkles; and overall improvement using a five-point scale (1=much improved; 2=somewhat improved; 3=no change; 4=somewhat worse; and 5=much worse).
This Example compares the clinical data for topically applied 6-furfurylamino-9-(2-tetrahydropyranyl)purine (0.10%) taken from Example 23 with similar clinical data generated for topically applied kinetin (0.1%) from an earlier study. […]

[1] = Eight Week Data, self assessment
[2] = Twelve Week Data, self assessment
[3] = Week 2, investigator, five-point scale 0=None to 4=Severe
[4] = Week 2, subjects' self assessment, five-point scale 1=much improved to 5=much worse
[5] = Week 4, investigator, five-point scale 0=None to 4=Severe
[6] = Week 4, subjects' self assessment, five-point scale 1=much improved to 5=much worse
[7] = Week 8, investigator, five-point scale 0=None to 4=Severe
[8] = Week 8, subjects' self assessment, five-point scale 1=much improved to 5=much worse
[9] = Week 12, investigator, five-point scale 0=None to 4=Severe
[10] = Week 12, subjects' self assessment, five-point scale 1=much improved to 5=much worse

Compound: c1coc(CNc2ncnc3c2ncn3C2CCCCO2)c1 (centres unmarked) [6-furfurylamino-9-(2-tetrahydropyranyl)purine]
- overall skin condition, change relative to baseline (2 weeks): −1.22%
- investigator's assessment of overall improvement in skin condition (relative to baseline) (2 weeks): 4.95
- investigator's assessment of overall skin condition (2 weeks): 4.05
- overall improvement, change relative to 2 week data (4 weeks): −10.61%
- overall skin condition, change relative to baseline (4 weeks): −15.23%
- investigator's assessment of overall improvement in skin condition (relative to baseline) (4 weeks): 4.44
- investigator's assessment of overall skin condition (4 weeks): 3.56
- overall improvement, change relative to 2 week data (8 weeks): −16.67%
- overall skin condition, change relative to baseline (8 weeks): −24.32%
- investigator's assessment of overall improvement in skin condition (relative to baseline) (8 weeks): 4.11
- investigator's assessment of overall skin condition (8 weeks): 3.20
- overall improvement, change relative to 2 week data (12 weeks): −17.16%
- overall skin condition, change relative to baseline (12 weeks): −27.97%
- investigator's assessment of overall improvement in skin condition (relative to baseline) (12 weeks): 4.12
- investigator's assessment of overall skin condition (12 weeks): 3.03
- Mean Improvement from Baseline: TEWL (Eight Week Data): 1%
- Mean Improvement from Baseline: Coarse Wrinkles (Eight Week Data): 7%
- Mean Improvement from Baseline: Fine Wrinkles (Eight Week Data): 22%*
- Mean Improvement from Baseline: Mottled Hyperpigmentation (Eight Week Data): 31%*
- Mean Improvement from Baseline: Overall Skin Condition (Eight Week Data): 24%*
- Mean Improvement from Baseline: Roughness (Eight Week Data): 86%*
- Subjects Reporting Improvement from Baseline: Blotchiness [1]: 60%
- Subjects Reporting Improvement from Baseline: Color [1]: 66%
- Subjects Reporting Improvement from Baseline: Fine Wrinkles [1]: 83%
- Subjects Reporting Improvement from Baseline: Texture [1]: 83%
- Mean Improvement from Baseline: TEWL (Twelve Week Data): 28%
- Mean Improvement from Baseline: Coarse Wrinkles (Twelve Week Data): 14%*
- Mean Improvement from Baseline: Fine Wrinkles (Twelve Week Data): 28%*
- Mean Improvement from Baseline: Mottled Hyperpigmentation (Twelve Week Data): 41%*
- Mean Improvement from Baseline: Overall Skin Condition (Twelve Week Data): 28%*
- Mean Improvement from Baseline: Roughness (Twelve Week Data): 84%*
- Subjects Reporting Improvement from Baseline: Blotchiness [2]: 63%
- Subjects Reporting Improvement from Baseline: Color [2]: 68%
- Subjects Reporting Improvement from Baseline: Fine Wrinkles [2]: 88%
- Subjects Reporting Improvement from Baseline: Texture [2]: 88%
- Acne Change Relative to Baseline (Week 2): −4.00%
- Coarse Wrinkles Change Relative to Baseline (Week 2): 4.44%
- Erythema Change Relative to Baseline (Week 2): −33.33%
- Mottled Hyperpigmentation Change Relative to Baseline (Week 2): −1.45%
- Roughness Change Relative to Baseline (Week 2): −37.31%
- Skin Irritation Change Relative to Baseline (Week 2): 0
- Skin Moisture Change Relative to Baseline (Week 2): 6.22%
- TEWL Change Relative to Baseline (Week 2): −1.98%
- Skin Moisture (Week 2): 125.37* arbitrary units
- TEWL (Week 2): 12.89 g/m^2/hr
- Fine Wrinkles Change Relative to Baseline (Week 2, investigator): −1.28%
- Acne [3]: 0.60
- Coarse Wrinkles [3]: 2.35
- Erythema [3]: 0.40^††
- Fine Wrinkles [3]: 2.18
- Mottled Hyperpigmentation [3]: 1.70
- Roughness [3]: 1.05*
- Skin Irritation [3]: 0
- Blotchiness/Brown Spots [4]: 2.70
- Fine Wrinkles [4]: 2.62
- Overall Improvement [4]: 2.36
- Skin Color [4]: 2.74
- Skin Texture [4]: 2.21
- Acne Change Relative to Baseline (Week 4): −13.64%
- Coarse Wrinkles Change Relative to Baseline (Week 4): −4.76%
- Erythema Change Relative to Baseline (Week 4): −47.62%
- Mottled Hyperpigmentation Change Relative to Baseline (Week 4): −15.63%
- Roughness Change Relative to Baseline (Week 4): −63.79%
- Skin Irritation Change Relative to Baseline (Week 4): 0
- Skin Moisture Change Relative to Baseline (Week 4): 20.96%
- TEWL Change Relative to Baseline (Week 4): −9.62%
- Skin Moisture (Week 4): 141.30* arbitrary units
- TEWL (Week 4): 11.70* g/m^2/hr
- Fine Wrinkles Change Relative to Baseline (Week 4, investigator): −11.25%
- Acne [5]: 0.53
- Coarse Wrinkles [5]: 2.22
- Erythema [5]: 0.31*
- Fine Wrinkles [5]: 1.97*
- Mottled Hyperpigmentation [5]: 1.50*
- Roughness [5]: 0.58*
- Skin Irritation [5]: 0
- Blotchiness/Brown Spots Change Relative to 2 Week Data (Week 4, self assessment): −6.19%
- Fine Wrinkles Change Relative to 2 Week Data (Week 4, self assessment): −18.68%
- Skin Color Change Relative to 2 Week Data (Week 4, self assessment): −5.32%
- Skin Texture Change Relative to 2 Week Data (Week 4, self assessment): −8.97%
- overall improvement, change relative to 2 week data (Week 4, self assessment): −6.17%
- Blotchiness/Brown Spots [6]: 2.58
- Fine Wrinkles [6]: 2.11*
- Overall Improvement [6]: 2.14
- Skin Color [6]: 2.50*
- Skin Texture [6]: 2.03*
- Acne Change Relative to Baseline (Week 8): −9.52%
- Coarse Wrinkles Change Relative to Baseline (Week 8): −7.23%
- Erythema Change Relative to Baseline (Week 8): −66.67%
- Mottled Hyperpigmentation Change Relative to Baseline (Week 8): −30.65%
- Roughness Change Relative to Baseline (Week 8): −85.71%
- Skin Irritation Change Relative to Baseline (Week 8): 0
- Skin Moisture Change Relative to Baseline (Week 8): 35.10%
- TEWL Change Relative to Baseline (Week 8): 0.11%
- Skin Moisture (Week 8): 158.04* arbitrary units
- TEWL (Week 8): 13.08 g/m^2/hr
- Fine Wrinkles Change Relative to Baseline (Week 8, investigator): −21.79%
- Acne [7]: 0.53
- Coarse Wrinkles [7]: 2.20
- Erythema [7]: 0.20*
- Fine Wrinkles [7]: 1.74*
- Mottled Hyperpigmentation [7]: 1.23*
- Roughness [7]: 0.23*
- Skin Irritation [7]: 0
- Blotchiness/Brown Spots Change Relative to 2 Week Data (Week 8, self assessment): −18.95%
- Fine Wrinkles Change Relative to 2 Week Data (Week 8, self assessment): −23.60%
- Skin Color Change Relative to 2 Week Data (Week 8, self assessment): −18.28%
- Skin Texture Change Relative to 2 Week Data (Week 8, self assessment): −15.58%
- overall improvement, change relative to 2 week data (Week 8, self assessment): −16.25%
- Blotchiness/Brown Spots [8]: 2.26*
- Fine Wrinkles [8]: 2.00*
- Overall Improvement [8]: 1.97*
- Skin Color [8]: 2.23*
- Skin Texture [8]: 1.91*
- Acne Change Relative to Baseline (Week 12): −45.00%
- Coarse Wrinkles Change Relative to Baseline (Week 12): −13.75%
- Erythema Change Relative to Baseline (Week 12): −66.67%%
- Mottled Hyperpigmentation Change Relative to Baseline (Week 12): −40.68%
- Roughness Change Relative to Baseline (Week 12): −83.64%
- Skin Irritation Change Relative to Baseline (Week 12): 0
- Skin Moisture Change Relative to Baseline (Week 12): 41.21%
- TEWL Change Relative to Baseline (Week 12): −27.79%
- Skin Moisture (Week 12): 165.42* arbitrary units
- TEWL (Week 12): 9.54* g/m^2/hr
- Fine Wrinkles Change Relative to Baseline (Week 12, investigator): −27.63%
- Acne [9]: 0.32*
- Coarse Wrinkles [9]: 2.03*
- Erythema [9]: 0.21*
- Fine Wrinkles [9]: 1.62*
- Mottled Hyperpigmentation [9]: 1.03*
- Roughness [9]: 0.26*
- Skin Irritation [9]: 0
- Blotchiness/Brown Spots Change Relative to 2 Week Data (Week 12, self assessment): −23.16%
- Fine Wrinkles Change Relative to 2 Week Data (Week 12, self assessment): −28.09%
- Skin Color Change Relative to 2 Week Data (Week 12, self assessment): −22.58%
- Skin Texture Change Relative to 2 Week Data (Week 12, self assessment): −23.38%
- overall improvement, change relative to 2 week data (Week 12, self assessment): −18.75%
- Blotchiness/Brown Spots [10]: 2.15*
- Fine Wrinkles [10]: 1.88*
- Overall Improvement [10]: 1.91*
- Skin Color [10]: 2.12*
- Skin Texture [10]: 1.74*
- Skin irritation or other adverse effects (over the 12 week study period): not observed
